Experimental data reported in ChEMBL document CHEMBL1201862, “PubChem BioAssay data set” (2004).
Activity calls are given as the source filed them. Cut-off read from the data, not from the text of the source, for most assays here: actives have a measured IC50 and inactives only a lower limit.

Columns and labels:
HEK293 = assay: cells; format: functional, cell-based; conditions: Homo sapiens
[1] = molecular target: T1, Nuclear receptor subfamily 0 group B member 1 (Homo sapiens, UniProt P51843); assay: Luminescence-based cell-based high throughput dose response assay for inhibitors of the orphan nuclear receptor subfamily 0, group B, member 1 (DAX1; NR0B1). [Related pubchem assays (depositor defined):AID504766, AID504790]; format: functional
T1 sequence (P51843 whole entry): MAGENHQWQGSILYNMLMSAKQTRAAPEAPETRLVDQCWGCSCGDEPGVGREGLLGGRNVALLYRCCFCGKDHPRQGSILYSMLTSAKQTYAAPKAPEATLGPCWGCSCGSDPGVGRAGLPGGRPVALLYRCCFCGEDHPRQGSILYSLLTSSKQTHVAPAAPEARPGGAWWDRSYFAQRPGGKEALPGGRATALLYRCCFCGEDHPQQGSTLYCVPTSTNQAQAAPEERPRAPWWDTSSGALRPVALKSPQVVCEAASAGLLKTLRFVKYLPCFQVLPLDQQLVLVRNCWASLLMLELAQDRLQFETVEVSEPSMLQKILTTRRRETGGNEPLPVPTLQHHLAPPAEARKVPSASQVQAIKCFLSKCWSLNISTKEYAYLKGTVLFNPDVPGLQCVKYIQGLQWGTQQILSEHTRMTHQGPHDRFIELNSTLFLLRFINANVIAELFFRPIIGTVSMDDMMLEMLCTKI

[2] = molecular target: T2, Sentrin-specific protease 8 (Homo sapiens, UniProt Q96LD8); assay: SENP8 protease inhibitors, SAR follow-up, biochemical, luminescence (AID 504501); format: functional
T2 sequence (Q96LD8 whole entry): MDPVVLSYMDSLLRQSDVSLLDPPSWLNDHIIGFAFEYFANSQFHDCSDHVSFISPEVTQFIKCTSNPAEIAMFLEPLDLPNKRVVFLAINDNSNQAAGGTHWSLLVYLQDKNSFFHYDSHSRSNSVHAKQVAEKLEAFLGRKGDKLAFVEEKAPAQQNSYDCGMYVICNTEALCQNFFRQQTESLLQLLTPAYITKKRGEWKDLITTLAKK

Caspase-3 [3] = molecular target: T3, Caspase-3 (Homo sapiens, UniProt P42574); assay: caspase-3 inhibitors as off-family protease, SAR follow-up, selectivity assay for SENP protease inhibitor project, biochemical, luminescence, set 2 (AID 588599); format: functional
T3 sequence (P42574 whole entry): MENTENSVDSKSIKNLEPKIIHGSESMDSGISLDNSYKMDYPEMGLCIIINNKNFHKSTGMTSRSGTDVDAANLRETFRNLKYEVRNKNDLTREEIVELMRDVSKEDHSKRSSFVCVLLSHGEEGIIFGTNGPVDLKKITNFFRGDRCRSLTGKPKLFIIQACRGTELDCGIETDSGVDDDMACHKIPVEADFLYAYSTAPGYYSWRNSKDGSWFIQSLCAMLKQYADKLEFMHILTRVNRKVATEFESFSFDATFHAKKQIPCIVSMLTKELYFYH

[4] = molecular target: T2, Sentrin-specific protease 8; assay: SENP8 protease inhibitors, SAR follow-up, biochemical, luminescence, set 2 (AID 588601); format: functional
Caspase-3 [5] = molecular target: T3, Caspase-3; assay: SAR Analysis of small molecule inhibitors of Sentrin-specific proteases (SENPs) using a Caspase-3 Selectivity assay. [Related pubchem assays (depositor defined):AID2540, AID2599, AID434973, AID489001]; format: functional
[6] = molecular target: T4, Sentrin-specific protease 7 (Homo sapiens, UniProt Q9BQF6); assay: SENP7 protease inhibitors, SAR follow-up, biochemical, luminescence, set 2 (AID 588600); format: functional
T4 sequence (Q9BQF6 whole entry): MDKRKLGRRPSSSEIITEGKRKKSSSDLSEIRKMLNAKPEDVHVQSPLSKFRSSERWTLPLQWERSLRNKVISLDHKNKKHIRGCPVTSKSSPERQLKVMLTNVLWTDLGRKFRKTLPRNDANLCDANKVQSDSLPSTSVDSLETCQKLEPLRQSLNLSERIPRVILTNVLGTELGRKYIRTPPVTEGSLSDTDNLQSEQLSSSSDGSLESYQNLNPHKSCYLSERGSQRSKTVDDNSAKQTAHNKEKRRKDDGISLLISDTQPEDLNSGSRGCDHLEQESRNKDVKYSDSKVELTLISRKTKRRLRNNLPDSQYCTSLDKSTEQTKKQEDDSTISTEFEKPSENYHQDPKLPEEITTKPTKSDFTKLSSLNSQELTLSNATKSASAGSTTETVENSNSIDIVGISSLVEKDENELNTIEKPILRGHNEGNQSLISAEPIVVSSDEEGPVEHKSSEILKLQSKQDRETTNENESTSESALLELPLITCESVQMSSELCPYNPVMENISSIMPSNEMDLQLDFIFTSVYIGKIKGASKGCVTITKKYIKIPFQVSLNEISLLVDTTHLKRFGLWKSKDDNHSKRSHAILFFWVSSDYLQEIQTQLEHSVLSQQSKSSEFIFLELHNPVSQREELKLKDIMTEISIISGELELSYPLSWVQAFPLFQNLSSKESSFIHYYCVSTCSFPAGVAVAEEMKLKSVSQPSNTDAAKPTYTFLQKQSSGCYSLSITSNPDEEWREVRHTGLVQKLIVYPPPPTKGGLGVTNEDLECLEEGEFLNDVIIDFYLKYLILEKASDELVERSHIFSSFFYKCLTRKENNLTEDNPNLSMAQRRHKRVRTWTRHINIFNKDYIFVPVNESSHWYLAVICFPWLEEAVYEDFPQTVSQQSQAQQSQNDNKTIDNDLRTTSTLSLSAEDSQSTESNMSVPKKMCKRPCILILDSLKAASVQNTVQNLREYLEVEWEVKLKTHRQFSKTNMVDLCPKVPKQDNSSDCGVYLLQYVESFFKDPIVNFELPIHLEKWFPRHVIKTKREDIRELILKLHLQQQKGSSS

[7] = molecular target: T5, Sentrin-specific protease 6 (Homo sapiens, UniProt Q9GZR1); assay: SAR Analysis of small molecule inhibitors of Sentrin-specific protease 6 (SENP6) using a Luminescent assay. [Related pubchem assays (depositor defined):AID2582, AID2599]; format: functional
T5 sequence (Q9GZR1 whole entry): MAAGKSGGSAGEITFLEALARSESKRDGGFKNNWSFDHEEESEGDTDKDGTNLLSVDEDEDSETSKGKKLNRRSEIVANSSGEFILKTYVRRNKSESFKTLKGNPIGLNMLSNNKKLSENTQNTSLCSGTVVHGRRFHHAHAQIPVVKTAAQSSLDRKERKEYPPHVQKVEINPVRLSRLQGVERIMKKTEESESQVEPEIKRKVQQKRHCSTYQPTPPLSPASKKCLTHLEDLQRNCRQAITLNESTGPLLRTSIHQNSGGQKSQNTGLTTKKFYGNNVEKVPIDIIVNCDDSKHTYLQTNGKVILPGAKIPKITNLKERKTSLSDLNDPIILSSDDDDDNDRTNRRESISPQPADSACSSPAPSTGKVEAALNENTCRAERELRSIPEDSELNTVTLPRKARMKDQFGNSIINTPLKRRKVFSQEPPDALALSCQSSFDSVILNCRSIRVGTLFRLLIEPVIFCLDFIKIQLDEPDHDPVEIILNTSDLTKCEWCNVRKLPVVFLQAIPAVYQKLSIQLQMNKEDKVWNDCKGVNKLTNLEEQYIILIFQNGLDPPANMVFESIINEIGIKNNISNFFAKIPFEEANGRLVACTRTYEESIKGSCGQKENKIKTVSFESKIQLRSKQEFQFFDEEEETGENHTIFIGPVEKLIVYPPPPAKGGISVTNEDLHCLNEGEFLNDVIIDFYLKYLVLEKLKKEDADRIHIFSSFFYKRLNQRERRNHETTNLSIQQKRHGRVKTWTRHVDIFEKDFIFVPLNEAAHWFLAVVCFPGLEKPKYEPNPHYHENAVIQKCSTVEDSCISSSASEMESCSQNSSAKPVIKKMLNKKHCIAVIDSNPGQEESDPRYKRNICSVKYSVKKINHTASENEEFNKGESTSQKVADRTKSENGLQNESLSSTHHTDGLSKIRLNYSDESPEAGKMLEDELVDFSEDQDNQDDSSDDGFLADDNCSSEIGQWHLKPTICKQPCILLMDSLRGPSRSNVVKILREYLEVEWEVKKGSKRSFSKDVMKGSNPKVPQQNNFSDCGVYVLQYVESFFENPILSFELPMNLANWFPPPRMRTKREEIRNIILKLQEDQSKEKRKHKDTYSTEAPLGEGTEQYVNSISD

[8] = molecular target: T5, Sentrin-specific protease 6; assay: SENP6 protease inhibitors, SAR follow-up, biochemical, luminescence, set 2 (AID 588598); format: functional
[9] = molecular target: T4, Sentrin-specific protease 7; assay: SENP7 protease inhibitors, SAR follow-up, biochemical, luminescence (AID 504497); format: functional
[10] = molecular target: T6, Rac GTPase-activating protein 1 (Homo sapiens, UniProt Q9H0H5); assay: MgcRacGAP GTPase-activating activity inhibitors, confirmation, biochemical, ADP Hunter fluorescence, primary and confirmatory (AID 624330); format: functional
T6 sequence (Q9H0H5 whole entry): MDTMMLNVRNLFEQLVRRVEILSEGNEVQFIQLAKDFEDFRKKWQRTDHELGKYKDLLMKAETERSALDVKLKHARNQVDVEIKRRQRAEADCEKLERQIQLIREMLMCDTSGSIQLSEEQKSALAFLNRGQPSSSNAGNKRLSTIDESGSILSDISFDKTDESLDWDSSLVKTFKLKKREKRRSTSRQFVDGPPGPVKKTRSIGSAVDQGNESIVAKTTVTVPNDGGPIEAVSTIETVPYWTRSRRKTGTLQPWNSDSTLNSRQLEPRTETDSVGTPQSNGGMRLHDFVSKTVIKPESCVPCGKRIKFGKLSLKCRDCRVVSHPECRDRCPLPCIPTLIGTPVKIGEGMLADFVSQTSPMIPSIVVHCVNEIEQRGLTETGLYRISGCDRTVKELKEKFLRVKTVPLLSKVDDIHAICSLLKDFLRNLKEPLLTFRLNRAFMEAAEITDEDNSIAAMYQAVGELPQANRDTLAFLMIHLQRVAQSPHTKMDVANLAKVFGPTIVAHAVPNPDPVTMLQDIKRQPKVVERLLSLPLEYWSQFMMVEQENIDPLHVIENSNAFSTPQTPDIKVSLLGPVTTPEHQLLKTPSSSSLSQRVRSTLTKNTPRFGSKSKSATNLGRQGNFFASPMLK

[11] = NIH-3T3 fibroblast cytotoxicity, dose response, cytotoxicity control, cell-based, fluorescence, Alamar Blue, secondary assay (AID 2327); format: functional;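 note: NIH-3T3 mouse fibroblasts cultured with fluconazole at 8 µg/mL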
[12] = C. albicans growth with fluconazole, confirmation, fluorescence, retest (AID 2467); format: functional, cell-based
[13] = molecular target: Serine/threonine-protein phosphatase (Candida dubliniensis (strain CD36 / CBS 7987 / NCPF 3949 / NRRLY-17841) (Yeast), UniProt B9W6M3); assay: calcineurin pathway inhibitors in yeast reporter, dose response, S. cerevisiae, CDRE-lacZ, luminescence, secondary (AID 2388); format: functional, cell-based;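 note: yeast reporter cells carrying a calcineurin-responsive lacZ construct stimulated with calcium chloride; luminescent beta-galactosidase reporter signal in whole cells rather than isolated phosphatase activity; potency for inhibition where a drop in reporter signal means calcineurin blockade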
[14] = molecular target: ATP-dependent molecular chaperone HSP82 (Candida albicans (strain WO-1) (Yeast), UniProt C4YTQ8); assay: loss of DOC-induced GRE-beta-galactosidase reporter signal, dose response, Hsp90 inhibitor project, S. cerevisiae, luminescence (AID 2400); format: functional, cell-based;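 note: beta-galactosidase luminescence from glucocorticoid response element reporter as proxy for Hsp90 function; inhibitor potency where signal loss means Hsp90 inhibition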
ATP-dependent molecular chaperone HSP82, sequence (C4YTQ8 whole entry): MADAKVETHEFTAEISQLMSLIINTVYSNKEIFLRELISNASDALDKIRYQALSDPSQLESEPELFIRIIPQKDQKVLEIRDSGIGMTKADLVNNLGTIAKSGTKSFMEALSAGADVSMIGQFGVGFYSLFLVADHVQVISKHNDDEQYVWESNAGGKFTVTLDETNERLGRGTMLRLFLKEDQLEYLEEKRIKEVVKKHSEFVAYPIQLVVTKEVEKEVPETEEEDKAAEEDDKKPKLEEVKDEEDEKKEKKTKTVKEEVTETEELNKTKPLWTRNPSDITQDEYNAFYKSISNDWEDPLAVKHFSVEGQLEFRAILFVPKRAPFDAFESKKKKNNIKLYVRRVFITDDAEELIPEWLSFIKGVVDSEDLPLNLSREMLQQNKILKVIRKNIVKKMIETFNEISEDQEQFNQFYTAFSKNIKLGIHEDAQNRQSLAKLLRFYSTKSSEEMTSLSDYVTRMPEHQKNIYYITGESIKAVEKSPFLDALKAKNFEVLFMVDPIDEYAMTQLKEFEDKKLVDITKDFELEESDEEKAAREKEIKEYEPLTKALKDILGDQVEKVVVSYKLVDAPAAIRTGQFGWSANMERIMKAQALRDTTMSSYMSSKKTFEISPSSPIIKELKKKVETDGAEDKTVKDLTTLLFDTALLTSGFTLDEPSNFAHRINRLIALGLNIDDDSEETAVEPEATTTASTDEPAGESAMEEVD

Serine/threonine-protein phosphatase, sequence (B9W6M3 whole entry): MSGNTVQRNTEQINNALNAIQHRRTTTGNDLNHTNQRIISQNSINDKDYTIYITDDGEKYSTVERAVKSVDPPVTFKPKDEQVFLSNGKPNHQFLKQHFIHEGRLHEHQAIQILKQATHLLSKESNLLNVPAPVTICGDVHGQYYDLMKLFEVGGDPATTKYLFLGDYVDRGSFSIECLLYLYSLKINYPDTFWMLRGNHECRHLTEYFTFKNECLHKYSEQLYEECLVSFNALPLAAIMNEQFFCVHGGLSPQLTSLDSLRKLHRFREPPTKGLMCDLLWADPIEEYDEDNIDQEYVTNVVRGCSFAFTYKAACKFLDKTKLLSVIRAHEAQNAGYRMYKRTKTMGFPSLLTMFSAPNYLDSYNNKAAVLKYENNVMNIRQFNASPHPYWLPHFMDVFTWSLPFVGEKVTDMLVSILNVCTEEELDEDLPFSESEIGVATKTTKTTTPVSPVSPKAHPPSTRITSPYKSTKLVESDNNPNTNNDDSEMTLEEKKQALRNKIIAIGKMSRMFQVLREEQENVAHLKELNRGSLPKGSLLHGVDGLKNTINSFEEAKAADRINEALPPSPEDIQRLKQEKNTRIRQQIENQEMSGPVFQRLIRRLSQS

IC50 (Caspase-3 [3]) | IC50 [6] | IC50 [8] | Compound | IC50 (HEK293) | IC50 [1] | IC50 [4] | other results
– | – | – | COc1ccccc1-c1nnc(-c2ccc(C)cc2)o1 | > 67.5 µM (inactive) | > 67.5 µM (inactive) | – | –
10.4 µM (active) | 10.3 µM (active) | 10.6 µM (active) | O=C(Nc1nc2ccccc2s1)c1ccsc1 | – | – | 9.92 µM (active) | IC50 [2]: 1.4 µM (active); IC50 (Caspase-3 [5]): 1.1 µM (active); IC50 [7]: 1.4 µM (active); IC50 [9]: 1.1 µM (active)
> 99 µM (inactive) | > 99 µM (inactive) | > 99 µM (inactive) | O=C(Nc1nc2ccccc2s1)c1cccc(S(=O)(=O)N2CCN(c3ccccc3)CC2)c1 | – | – | > 99 µM (inactive) | –
– | – | – | Cn1c(N2CCOCC2)c(/C=N/O)c2ccccc21 | > 67.5 µM (inactive) | > 67.5 µM (inactive) | – | IC50 [10]: 74.5 µM (active)
– | – | – | N#Cc1cc(C#N)c(N2CCN(c3cccc(Cl)n3)CC2)nc1N | – | – | – | EC50 [11]: > 150 µM (inactive); EC50 [12]: 1.47 µM (active); EC50 [13]: > 180 µM (inactive); EC50 [14]: 23.7 µM (active)
